According to PubChem BioAssay AID330 (DTP/NCI, 2004):
Values joined by “and” are separate entries in the source; they are usually repeats but may differ in a detail not shown here. Identical values can stand only once. Toxic doses and inconclusive results are not listed. Rule for the calls: active = survival T/C of 150% or more; inactive = T/C below 125% in these data.

System: P388 leukemia ip, CD2F1 mice, survival T/C
Test: NCI In Vivo Anticancer Drug Screen. Data for tumor model P388 Leukemia (intraperitoneal) in CD2F1 (CDF1) mice
Conditions: endpoint: median survival time, higher = longer survival
Summary of the method: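 Mice carrying the transplanted tumor received test compound or vehicle. Survival was recorded in each group, and the value is the treated-group measurement divided by that of the vehicle-treated control group.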

[1] = dose: 100.0 mg/kg/injection, schedule: Q04DX003 (ip), vehicle: Klucel (hydroxypropylcellulose) (HPC)
[2] = dose: 200.0 mg/kg/injection, schedule: Q04DX003 (ip), vehicle: Klucel (hydroxypropylcellulose) (HPC)
[3] = dose: 400.0 mg/kg/injection, schedule: Q04DX003 (ip), vehicle: Klucel (hydroxypropylcellulose) (HPC)
[4] = dose: 50.0 mg/kg/injection, schedule: Q01DX009 (ip), vehicle: Klucel (hydroxypropylcellulose) (HPC)
[5] = dose: 100.0 mg/kg/injection, schedule: Q01DX009 (ip), vehicle: Klucel (hydroxypropylcellulose) (HPC)
[6] = dose: 200.0 mg/kg/injection, schedule: Q01DX009 (ip), vehicle: Klucel (hydroxypropylcellulose) (HPC)
[7] = dose: 400.0 mg/kg/injection, schedule: Q01DX009 (ip), vehicle: Klucel (hydroxypropylcellulose) (HPC)
[8] = dose: 60.0 mg/kg/injection, schedule: Q01DX005 (ip), vehicle: saline with Tween-80
[9] = dose: 120.0 mg/kg/injection, schedule: Q01DX005 (ip), vehicle: saline with Tween-80
[10] = dose: 50.0 mg/kg/injection, schedule: Q01DX005 (ip), vehicle: Klucel (hydroxypropylcellulose) (HPC)
[11] = dose: 100.0 mg/kg/injection, schedule: Q01DX005 (ip), vehicle: Klucel (hydroxypropylcellulose) (HPC)
[12] = dose: 200.0 mg/kg/injection, schedule: Q01DX005 (ip), vehicle: Klucel (hydroxypropylcellulose) (HPC)
[13] = dose: 50.0 mg/kg/injection, schedule: Q01DX009 (ip), vehicle: saline with Tween-80
[14] = dose: 100.0 mg/kg/injection, schedule: Q01DX009 (ip), vehicle: saline with Tween-80
[15] = dose: 200.0 mg/kg/injection, schedule: Q01DX009 (ip), vehicle: saline with Tween-80

Measured: T/C

O=C(Nc1ccc(Cl)c(Cl)c1)N1CC=CC1
inactive: [1] 101 % of control | [2] 96 % of control | [3] 94 % of control

NC(=O)NCCSC1(SCCNC(N)=O)CCCCC1
inactive: [4] 107 % of control | [5] 103 % of control | [6] 100 % of control | [7] 99 % of control

O=C(/C=C/c1c(-c2ccccc2)[nH]c2ccccc12)c1cccc([N+](=O)[O-])c1
inactive: [8] 98 % of control | [9] 90 % of control | dose: 240.0 mg/kg/injection, schedule: Q01DX005 (ip), vehicle: saline with Tween-80 90 % of control

[C-]#[N+]C1(c2ccccc2)C2CC3CC(C2)CC1C3 (configuration not stated)
inactive: [1] 106 % of control | [2] 100 % of control | [3] 106 % of control

CSC1(SC2=NCCN2)SC2(NCCN2)S1
inactive: dose: 200.0 mg/kg/injection, schedule: Q01DX001 (ip), vehicle: Klucel (hydroxypropylcellulose) (HPC) 86 % of control | dose: 400.0 mg/kg/injection, schedule: Q01DX001 (ip), vehicle: Klucel (hydroxypropylcellulose) (HPC) 90 % of control

Clc1ccc(-c2nnc(-c3ccccc3)o2)cc1Cl
inactive: [4] 112 % of control | [5] 105 % of control | [6] 112 % of control | [7] 100 % of control

C=C(C)CCN1C(=O)NC(C)(C)C1O (configuration not stated)
inactive: dose: 50.0 mg/kg/injection, schedule: Q01DX005 (ip), vehicle: saline 100 % of control | dose: 100.0 mg/kg/injection, schedule: Q01DX005 (ip), vehicle: saline 107 % of control | dose: 200.0 mg/kg/injection, schedule: Q01DX005 (ip), vehicle: saline 101 % of control

O=S(=O)(O)c1ccc(Cl)c(N=N/C=N/Nc2cc(S(=O)(=O)O)ccc2Cl)c1
inactive: [10] 100 % of control | [11] 98 % of control | [12] 100 % of control

Cc1cc(O)c(C(c2ccccn2)c2c(O)cc(C)[nH]c2=O)c(=O)[nH]1
inactive: [13] 102 % of control | [14] 102 % of control | [15] 105 % of control

Cc1ccc(S(=O)(=O)N(C=O)c2ccccc2)cc1
inactive: [13] 90 % of control | [14] 90 % of control

O=S(c1ccccc1)c1ccccc1C(O)(C(F)(F)F)C(F)(F)F (configuration not stated)
inactive: dose: 100.0 mg/kg/injection, schedule: Q04DX002 (ip), vehicle: Klucel (hydroxypropylcellulose) (HPC) 96 % of control | dose: 200.0 mg/kg/injection, schedule: Q04DX002 (ip), vehicle: Klucel (hydroxypropylcellulose) (HPC) 100 % of control | dose: 400.0 mg/kg/injection, schedule: Q04DX002 (ip), vehicle: Klucel (hydroxypropylcellulose) (HPC) 101 % of control

Cc1cc(C)nc(/N=C/c2ccccc2O)c1
inactive: dose: 50.0 mg/kg/injection, schedule: Q01DX009 (ip), vehicle: saline 98 % of control | dose: 100.0 mg/kg/injection, schedule: Q01DX009 (ip), vehicle: saline 88 % of control | dose: 200.0 mg/kg/injection, schedule: Q01DX009 (ip), vehicle: saline 91 % of control

COc1cccc2c1C(=O)c1c(OC)c(C)cc(OC)c1C2=O
inactive: dose: 1.56 mg/kg/injection, schedule: Q01DX009 (ip), vehicle: water 100 % of control | dose: 3.13 mg/kg/injection, schedule: Q01DX009 (ip), vehicle: water 107 % of control | dose: 6.25 mg/kg/injection, schedule: Q01DX009 (ip), vehicle: water 110 % of control | dose: 12.5 mg/kg/injection, schedule: Q01DX009 (ip), vehicle: water 110 % of control | dose: 25.0 mg/kg/injection, schedule: Q01DX009 (ip), vehicle: water 110 % of control

N#C/C=C/C#N
inactive: dose: 0.15 mg/kg/injection, schedule: Q01DX009 (ip), vehicle: saline 100 % of control | dose: 0.3 mg/kg/injection, schedule: Q01DX009 (ip), vehicle: saline 109 % of control | dose: 0.6 mg/kg/injection, schedule: Q01DX009 (ip), vehicle: saline 113 % of control

CCCCCCCCCCCCCCCCCC(=O)CS(C)(=O)=O
inactive: dose: 50.0 mg/kg/injection, schedule: Q01DX009 (ip), vehicle: suspension in saline 100 % of control | dose: 100.0 mg/kg/injection, schedule: Q01DX009 (ip), vehicle: suspension in saline 100 % of control | dose: 200.0 mg/kg/injection, schedule: Q01DX009 (ip), vehicle: suspension in saline 97 % of control

COc1cc2c(c(OC)c1OC)-c1[nH]ncc1CC2
inactive: dose: 25.0 mg/kg/injection, schedule: Q04DX003 (ip), vehicle: Klucel (hydroxypropylcellulose) (HPC) 100 % of control | dose: 50.0 mg/kg/injection, schedule: Q04DX003 (ip), vehicle: Klucel (hydroxypropylcellulose) (HPC) 103 % of control | [1] 93 % of control and 94 % of control | [3] 93 % of control

C[C@]12C=CC(=O)C=C1CC[C@@H]1[C@@H]2C(=O)C[C@@]2(C)[C@H]1CC[C@]2(O)C(=O)COC(=O)CSc1c2ccccc2nc2ccccc12
inactive: dose: 12.5 mg/kg/injection, schedule: Q01DX005 (ip), vehicle: Klucel (hydroxypropylcellulose) (HPC) 103 % of control | dose: 25.0 mg/kg/injection, schedule: Q01DX005 (ip), vehicle: Klucel (hydroxypropylcellulose) (HPC) 100 % of control | [10] 104 % of control and 107 % of control | [11] 107 % of control | [12] 102 % of control

NNC(=O)CNc1ccc(F)c(Cl)c1
inactive: dose: 15.0 mg/kg/injection, schedule: Q01DX005 (ip), vehicle: saline with Tween-80 99 % of control | dose: 30.0 mg/kg/injection, schedule: Q01DX005 (ip), vehicle: saline with Tween-80 96 % of control | [8] 94 % of control and 97 % of control | [9] 104 % of control

CC(=O)C1CC(CC(=O)O)C1(C)C (configuration not stated)
inactive: dose: 25.0 mg/kg/injection, schedule: Q01DX009 (ip), vehicle: Klucel (hydroxypropylcellulose) (HPC) 96 % of control | [4] 108 % of control and 92 % of control | [5] 96 % of control and 97 % of control | [6] 99 % of control and 100 % of control | [7] 100 % of control

O=C1CCC(n2cc(F)c(=O)[nH]c2=O)O1 (configuration not stated)
inactive: dose: 25.0 mg/kg/injection, schedule: Q04DX003 (ip), vehicle: saline with Tween-80 105 % of control and 94 % of control | dose: 50.0 mg/kg/injection, schedule: Q04DX003 (ip), vehicle: saline with Tween-80 108 % of control and 95 % of control | dose: 100.0 mg/kg/injection, schedule: Q04DX003 (ip), vehicle: saline with Tween-80 101 % of control and 120 % of control and 95 % of control | dose: 400.0 mg/kg/injection, schedule: Q04DX003 (ip), vehicle: saline with Tween-80 103 % of control

O=C(OCc1ccccc1)N1C[C@@H](O)[C@H](Br)[C@H]1Cc1ccccc1
inactive: dose: 100.0 mg/kg/injection, schedule: Q01DX001 (ip), vehicle: distilled water + alcohol 103 % of control | dose: 200.0 mg/kg/injection, schedule: Q01DX001 (ip), vehicle: distilled water + alcohol 100 % of control | dose: 400.0 mg/kg/injection, schedule: Q01DX001 (ip), vehicle: distilled water + alcohol 97 % of control

COC(=O)/C=C1\C=CC=CN1C
inactive: [13] 105 % of control | [14] 106 % of control | [15] 106 % of control

O=C(Oc1cc(Cl)ccc1Cl)c1ccccc1
inactive: dose: 12.5 mg/kg/injection, schedule: Q01DX009 (ip), vehicle: saline with Tween-80 109 % of control and 96 % of control | dose: 25.0 mg/kg/injection, schedule: Q01DX009 (ip), vehicle: saline with Tween-80 100 % of control and 98 % of control | [13] 100 % of control and 102 % of control | [14] 102 % of control and 91 % of control

Cc1ccc(S(=O)(=O)NC(=O)NNC(=O)C(=O)Nc2ccc(F)cc2)cc1
inactive: [10] 100 % of control | [11] 90 % of control | [12] 90 % of control
